Literature values in US11819485B2, “Levodopa fractionated dose composition and use” (AVION PHARMACEUTICALS, LLC, priority 2018, dated 2023).
Read-outs that look alike come from different tables or passages of the source.

Tests used:
[1] = not given; remark: listed apart in the source
[2] = steady intravenous dose, plasma LD kept within efficacy-with-no-MRCs range, as long as the infusion lasted

solubility in water: poorly soluble in water
SMILES: N[C@@H](Cc1ccc(O)c(O)c1)C(=O)O [LD, Levodopa]
duration of effect of each LD dose ([1]; beginning of the disease, orally administered LD): 6 h
duration of effect of each dose ([1]; early stages of the disease): approximately 6 hours
duration of effect of each dose ([1]; ultimately, as PD progresses): about 1.5 hours
antiparkinsonian effect and dyskinesias during infusion [2]: full antiparkinsonian effect (no wearing off) without any dyskinesias
